# From US9808461B2, “Protection of renal tissues from ischemia through inhibition of the proliferative kinases CDK4 and CDK6” (The University of North Carolina at Chapel Hill, priority 2010, dated 2017)
# Entries after “also recorded” stand apart in the source; their conditions may differ.
# What was measured:
# [1] = test system: primary human renal proximal tubule epithelial cells; assay: Cell proliferation, CellTiter-Glo; assay type: cell-based; conditions: 10 nM to 3 μM, 72 hours post treatment
# Experimental: Cells were treated with varying concentrations (0 nM, 10 nM, 30 nM, 100 nM, 300 nM, or 1 μM) of 6-acetyl-8-cyclopentyl-5-methyl-2-(5-piperazin-1-yl-pyridin-2-ylamino)-8H-pyrido-[2,3-d]pyrimidin-7-one (PD0332991) for 72 hours. Following incubation, cell proliferation was quantified using CellTiter-Glo® (Promega, Madison, Wis., United States of America). Data represent the mean of four replicates (relative light units, RLU)+/−standard deviation. Inhibition of CDK4/6 blocks the proliferation of normal human primary renal proximal tubule epithelial cells. These cells were seeded at an appropriate density in 96 well plates and incubated for 24 hours at 37° C. in a humidified incubator at 5% CO2. Cells were then exposed to a potent and selective CDK4/6 inhibitor, in this case PD0332991, across a broad dose range 24 hours later. The dose range explored is 0, 10 nM, 30 nM, 100 nM, 300 nM, 1 μM or 3 μM PD0332991. Seventy-two hours post exposure, the CDK4/6 inhibited cells were treated with CellTiter-Glo® (Promega, Madison, Wis., United States of America) using manufacturer's specifications. The plate was read in luminometer at 1 second/well. Results were placed in Microsoft Excel and analyzed.
# [2] = test system: primary human renal proximal tubule epithelial cells; assay: Cell cycle analysis (propidium iodide staining, flow cytometry); assay type: cell-based; conditions: 0, 10 nM, 30 nM, 100 nM, 300 nM or 1 μM for 16 hours
# Experimental: Representative histograms of cell cycle analysis of primary human renal proximal tubule epithelial cells treated with varying concentrations (0 nM, 10 nM, 30 nM, 100 nM, 300 nM, or 1 μM) of 6-acetyl-8-cyclopentyl-5-methyl-2-(5-piperazin-1-yl-pyridin-2-ylamino)-8H-pyrido-[2,3-d]pyrimidin-7-one (PD0332991) for 16 hours. Cells were harvested, fixed, stained, and analyzed by flow cytometry. Data was fitted using Mod-Fit™ software from Verity (Verity Software House, Topsham, Me., United States of America). […] Cell cycle analysis of primary human renal proximal tubule epithelial cells treated with varying concentrations (0 nM, 10 nM, 30 nM, 100 nM, 300 nM, or 1 μM) of 6-acetyl-8-cyclopentyl-5-methyl-2-(5-piperazin-1-yl-pyridin-2-ylamino)-8H-pyrido-[2,3-d]pyrimidin-7-one (PD0332991) for 16 hours. Cells were harvested, fixed, stained, and analyzed by flow cytometry. Data was fitted using Mod-Fit™ software from Verity (Verity Software House, Topsham, Me., United States of America). […] Samples were processed and the DNA was stained with propidium iodide (PI) solution and analyzed by flow cytometry. FCS files from flow cytometer were further analyzed using cell cycle analysis software ModFit™ from Verity (Verity Software House, Topsham, Me., United States of America), where cell cycle fractions were calculated as a percentage of the whole population.
# [3] = Serum creatinine after bilateral ischemia reperfusion injury; assay type: in vivo, mice; conditions: 150 mg/kg oral gavage 1 hour prior to bilateral IRI; N=9; vehicle group 2.27
# Experimental: PD0332991 was dissolved in 50 mM sodium lactate buffer (pH 4.0) to a final concentration of 15 mg/mL. Mice were treated with a 150 mg/kg dose of PD0332991, or vehicle, 1 hour prior to ischemia reperfusion surgery by oral gavage. 8 week old male mice were anesthetized with pentobarbital sodium (60 mg/kg body weight, intraperitoneally) prior to surgery. Body temperatures were controlled at 36.5° C.-37.5° C. throughout the procedure. Bilateral flank incisions into the peritoneum allowed access to both kidneys. Kidneys were exposed and ischemia was induced by simultaneously clamping the renal pedicle of both kidneys with nontraumatic microaneurysm clamps (Roboz, Rockville, Md.). Clamped kidneys were placed back into the peritoneal cavity for 28 minutes, and clamps were then removed resulting in reperfusion injury. The flank incisions were closed with wound clips and the mice were allowed to recover in their home cages. […] Serum creatinine was measured by the Beckman Creatinine Analyzer 2, which utilizes a 10 mM picric acid solution mixed with a buffer containing 10 mM sodium borate, 240 mM sodium hydroxide, and 10 mM sodium dodecyl sulfate (SDS). Serum creatinine is measured against a creatinine standard and recorded as milligrams per deciliter.
# renal epithelial cells = assay: BrdU incorporation into renal epithelial cells after ischemia reperfusion injury; assay type: in vivo, mice
# Experimental: FIG. 3A is a schematic diagram showing a dosing schedule for studies of 5-bromo-2-deoxyuridine (BrdU) incorporation into epithelial cells following ischemic reperfusion injury after a single dosing of a CDK4/6 inhibitor. Mice were treated with 6-acetyl-8-cyclopentyl-5-methyl-2-(5-piperazin-1-yl-pyridin-2-ylamino)-8H-pyrido-[2,3-d]pyrimidin-7-one (PD0332991; 150 mg/kg) or vehicle (sodium lactate buffer) by oral gavage one hour before ischemic reperfusion injury. BrdU (100 mg/kg) was administered via i.p. injection 21 hours after injury. Mice were sacrificed 3 hours after the BrdU injection, and BrdU incorporation into the renal epithelial cells was quantified. […] Three hours following the second injection of BrdU, the mice were sacrificed and BrdU incorporation into the renal epithelial cells was quantified. […] Kidney cell proliferation following ischemia reperfusion injury (IRI) was monitored (based on BrdU incorporation in renal epithelial cells) following a one time, pre-IRI PD0332991 or vehicle (sodium lactate buffer) dosing as shown in FIG. 3A and following a two time (once pre-IRI and once post-IRI) PD0332991 or vehicle dosing as shown in FIG. 3B. […] BrdU positive (BrdU(+)) cells were quantified visually by counting the number of BrdU(+) cells in a field of kidney epithelial cells under magnification. […]
smiles,measurement,setting,value
"CC(=O)c1c(C)c2cnc(Nc3ccc(N4CCNCC4)cn3)nc2n(C2CCCC2)c1=O [PD0332991, 6-acetyl-8-cyclopentyl-5-methyl-2-(5-piperazin-1-yl-pyridin-2-ylamino)-8H-pyrido-[2,3-d]-pyrimidin-7-one]",cell proliferation (relative light units) compared to DMSO control,[1],clear dose dependent inhibition of cell proliferation; also recorded: blocks proliferation
same,G1 cell cycle arrest,[2],induces a G1 arrest; also recorded: “clean” G1-arrest without evidence of cytotoxicity
same,"cell cycle fractions (G0/G1, G2/M, S-phase)",[2],dose dependent increase in the G0/G1 fraction of the cell cycle was observed with a consummate decrease in both G2/M and S-phase fractions
same,average serum creatinine 24 hours after surgery,[3],1.74 mg/dL
same,"BrdU(+) renal epithelial cells 24 hours after injury, versus vehicle","renal epithelial cells; 150 mg/kg oral gavage one time, 1 hour before IRI (FIG. 3A schedule)",significantly less BrdU(+) cells; also recorded: prevents epithelial cells from entering S-phase
same,"BrdU incorporation in renal epithelial cells 48 hours after injury, versus vehicle","renal epithelial cells; 150 mg/kg oral gavage two doses, once pre-IRI and once post-IRI (FIG. 3B schedule)",less BrdU incorporation; also recorded: prevents epithelial cells from entering S-phase
